Measured values as given in patent EP0942896B1, “SUBSTITUTED PHENOLS AND THIOPHENOLS USEFUL AS ANTIOXIDANT AGENTS” (Aventis Pharmaceuticals Inc., priority 1996, dated 1998).
Read-outs that look alike come from different tables or passages of the source.

Key:
Male Sprague-Dawley Rats = experiment: Serum clinical chemistries in rats fed compound as dietary admixture; format: in vivo; settings: % of control, diet 0.3%, 4 days, N = 5; for ALT: alanine aminotransferase in rat serum; for ALP: alkaline phosphatase in rat serum; for AST: aspartate aminotransferase in rat serum; for GLUC: glucose in rat serum; for response vs control in vivo at 0.3 % in diet: feed or water, 96 h
Source text: (§1) A typical experiment consists of 4-6 groups of rats (N = 5 per group) with I group being a control which receives no MDL compound and the other groups being treated with 0.3% MDL compound. Some of the compounds are either repeated at 0.3% or evaluated again at the lower dose of 0.1%. House Male Sprague-Dawley rats, 50-100 g, (Harlan Laboratories, Indianapolis, IN) in groups of 5, feeding ad libitum water and Purina Rodent chow (#5002) with or without MDL compound as a dietary admixture for 4 days. Make dietary admixtures (0.3%) by mixing 1.2 grams of an MDL compound with 400 grams of Purina rodent chow (#5002). Mix the MDL compound with approximately 50 grams of food using a mortar and pestle. This is added to the remainder of the food and mixed for 3 hours on a rotary mixer. In the morning of day 5, anesthetize non-fasted rats with carbon dioxide, and collect blood by cardiac puncture. Sacrifice rats by cervical dislocation. Record body weights and liver weights in grams. Record food consumption as grams • day^-1 • rat^-1. Deaths are recorded as mortality. Use aliquots of fresh serum for clinical chemistries, thiobarbituric acid reactive substances (TBARS) and conjugated diene measurements. Freeze aliquots of serum (∼ 0.5mL) and whole livers at -20°C for compound and metabolite concentration determination at a later time.
Allow blood to clot at room temperature for 30 minutes. Obtain serum after centrifugation for 10 min at 4°C at 3000 rpm in a Beckman J-6M/E centrifuge with a JS-4.2 rotor. Analyze fresh serum by a COBAS MIRA S autoanalyzer (Roche Diagnostics) using Roche diagnostic reagents for the following clinical chemistry measurements: alkaline phosphatase (ALP, kit # 44553), alanine transaminase (ALT, kit # 42375), aspartate aminotransferase (AST, kit # 42381), total cholesterol (CHOL, kit # 44334), triglyceride (TG, kit # 44120), and glucose (GLU, kit # 44558). Calculate ALP, ALT, and AST as units/L. Calculate cholesterol, triglycerides, and glucose as mg/dL.

[1] = tested on: oxidation of serum lipids; experiment: TBARS assay on serum of treated rats (CuSO4-initiated oxidation); format: in vivo, Male Sprague-Dawley rats; settings: % of control; thiobarbituric acid reactive substances as nmoles MDA, rat serum; diet 0.3%, 4 days; N = 5
Source text: as §1
In this assay the oxidation of serum lipids is initiated with CuSO4, resulting in the formation of aldehydes, such as malondialdehyde (MDA). Upon incubation with thiobarbituric acid, the absorbance of the aldehydes can be detected at 530-540 nm. As stated in the previous example, TBARS values which are lower than control serum values indicate the relative ability of a test compound to inhibit the oxidation of lipids in a sample. Measure TBARS as follows: mix 100µL of serum with 400µL of a 5mmol CuSO4 solution and incubate at 37°C for 3 hr. Stop the reactions by addition of 1.0mL of 20% trichloroacetic acid. Then add 1.0mL of 0.67% thiobarbituric acid in 0.05 N sodium hydroxide, mix, and incubate the samples for 30 min at 90°C. Centrifuge samples briefly to pellet undissolved material, and transfer the supernatants to a 96-well microtiter plate. Measure absorbances at 540 nm using a Biotek model EL311 microplate reader. The nmoles of MDA produced are calculated from a standard curve of 0 to 10 nmoles of MDA prepared from malonaldehyde bis(dimethylacetal). Serum samples from treated rats are compared to serum samples from control rats that received no MDL compound.

oxidation of lipids = experiment: Conjugated diene lag phase determination on pooled serum of treated rats; format: in vivo, Male Sprague-Dawley rats; settings: not normalized, mean of 2 determinations of pooled rat serum (N = 5), diet 0.3%, 4 days
Source text: as §1
Conjugated diene lag phase is another indicator of the oxidation of lipids. Lipids exposed to Cu^++ form conjugated dienes that absorb ultraviolet light in the range of 230 to 235 nm. The lag phase of diene formation gives an indication of the amount of oxidation of the lipids. A lag phase longer than control samples indicate inhibition of the oxidation. Determine conjugated diene lay phase using a Varian DMS200 spectrophotometer (fitted with a constant temperature, 5 cuvette sample changer) at 30°C. Add twenty (20) µL of pooled serum to cuvettes containing 3.0mL phosphate buffered saline, pH 7.5, and mix. Measure the absorbances of all cuvettes and set the instrument baseline to zero using the lowest absorbing sample. Next, add 100µL of 1 mmol CuSO4 and mix immediately. Record the absorbance of each cuvette at 2 min intervals for a period of 840 min. Capture the data and transfer to a Microsoft EXCEL® spreadsheet where the curves are smoothed and differentials obtained. Determine lag times mathematically as minutes. Pool serum samples (N = 5); data presented are the mean values of 2 determinations. Compare serum samples from treated rats to serum samples from control rats that received no MDL compound.

[2] = Animal parameters (food, body weight, liver weight/body weight, mortality) in rats; format: in vivo; settings: 4 days; for food / lw/bw / body wt.: % of control, diet 0.3%, N = 5; for food: grams eaten per day per rat; for lw/bw: liver weight/body weight; for lw/bw / body wt. / mortality: rat; for body wt.: weight in grams; for mortality: male, Sprague-Dawley, in vivo
Source text: as §1

[3] = HPLC quantitation of compound and metabolite concentration in rat serum and liver; format: in vivo; settings: male, Sprague-Dawley, oral, 0.3 % in chow, diet 0.3%, 4 days, mean N = 5
Source text: as §1
Determine serum and liver concentrations of parent compound and the metabolites, bisphenol and diphenoquinone, by reverse phase HPLC using a Waters 990 Powerline system. Homegenize livers (1 gram samples) with 5.0mL PBS, pH 7.4, using a Polytron tissue homogenizer at setting 5 for 20-30 seconds. Extract serum or liver homogenates as follows: add 100µL of either serum or homogenate to 2.0mL diethyl ether: ethanol (3:1) while vortexing the tube. Cap the sample tubes and centrifuge for 10 min at 5°C at 3500 rpm in a Beckman GPKR centrifuge with a GH 3.7 rotor. Transfer the supernatants to clean tubes and dry under N2. Reconstitute samples with 200µL of acetonitrile : hexane : 0.1 M ammonium acetate (90: 6.5 : 3.5, by vol.). Then, inject 100µL onto a Waters Deltapak C18-300 Å column, and elute with an 83% acetonitrile : 17% water mobile phase at a flow rate of 1.5mL/min. Record absorbances at the wavelengths of 240, 254, and 420nm. Calculate compound concentrations from known quantities of authentic parent compounds after correction for recovery. […]. Calculate concentrations as µg/mL of serum and µg/g of liver.

[4] = total cholesterol in rat serum, read-out: CHOL
[5] = triglycerides in rat serum, read-out: TRIG
[6] = parent compound concentration in rat liver, read-out: Liver Parent
[7] = parent compound concentration in rat serum, read-out: Serum Parent

SMILES | ALT (Male Sprague-Dawley Rats) [%] | ALP (Male Sprague-Dawley Rats) [%] | AST (Male Sprague-Dawley Rats) [%] | GLUC (Male Sprague-Dawley Rats) [%] | response vs control in vivo at 0.3 % in diet (Male Sprague-Dawley Rats; [4]) [%] | response vs control in vivo at 0.3 % in diet (Male Sprague-Dawley Rats; [5]) [%] | TBARS [1] [%] | CONJ. DIENE (oxidation of lipids) [min] | food [2] [%] | lw/bw [2] [%] | body wt. [2] [%] | mortality [2] [%] | concentration at 5 day [3, 6] [ng/g] | concentration at 5 day [3, 7] [ng/mL]
CC(C)=CCC[C@H](C)CCOc1ccc(O)c(C(C)(C)C)c1 (stereo in doubt) [MDL 103,649, Phenol, 2-(1,1-dimethylethyl)-4-[(3,7-dimethyl-6-octenyl)oxy]-, (S)-] | 119 | 74 | 82 | 101 | 89 | 143 | 29 | 375 | 95 | 111 | 94 | 0 | 0 | 1400
CC(C)=CCC[C@H](C)CCSc1ccc(O)c(C(C)(C)C)c1 [MDL 103,714, Phenol, 2-(1,1-dimethylethyl)-4-[(3,7-dimethyl-6-octenyl)thio]-, (S)-] | 120 | 111 | 104 | 95 | 90 | 122 | 21 | – | 102 | 121 | 103 | 0 | 0 | 2700
CC(C)CCCC(C)CCOc1cc(C(C)(C)C)c(O)c(C(C)(C)C)c1 (stereo not shown) [MDL 104,102, Phenol, 2,6-bis(1,1-dimethylethyl)-4-[(3,7-dimethyloctyl)oxy]-] | 114 | 101 | 82 | 98 | 100 | 127 | 71 | 229 | 92 | 121 | 97 | 0 | 481000 | 32800
CC(CCCC(C)(C)O)CCSc1cc(C(C)(C)C)c(O)c(C(C)(C)C)c1 (stereo not shown) [MDL 104,487, Phenol, 2,6-bis(1,1-dimethylethyl)-4-[(7-hydroxy-3,7-dimethyloctyl)thio]-] | 129 | 137 | 124 | 92 | 127 | 108 | 87 | – | 90 | 150 | 95 | 0 | 3800 | 4100
CC(C)=CCCC(C)CCOc1ccc(O)c(C(C)(C)C)c1 (stereo not shown) [MDL 105,411, Phenol, 2-(1,1-dimethylethyl)-4-[(3,7-dimethyl-6-octenyl)oxy]-] | 122 | 76 | 87 | 96 | 105 | 100 | 29 | 400 | 95 | 114 | 101 | 0 | 0 | 1100
CC(C)=CCC[C@H](C)CCOc1cc(C(C)(C)C)c(O)cc1C(C)(C)C [MDL 107,059, Phenol, 2,5-bis(1,1-dimethylethyl)-4-[(3,7-dimethyl-6-octenyl)oxy]-, (S)-] | 116 | 118 | 140 | 96 | 89 | 35 | 78 | 201 | 95 | 107 | 95 | 0 | 0 | 0
